Test results from PMC7707423 (Acta biomaterialia, 2017).

Key:
IGF-I [1] = target: IGF-I (Homo sapiens, UniProt P05019); test: Surface plasmon resonance, IGF-I binding to alginate materials; conditions: SPR
chondrocytes [2] = test: GAG synthesis by encapsulated chondrocytes; type: cell-based, Bos taurus; conditions: control (empty vector) chondrocytes; 0-100 μM KPLHALL, 30 days
chondrocytes [3] = test: Hydroxyproline; type: cell-based, Bos taurus; conditions: 10, 33 and 100 μM binding sites; p<0.001 by 2-way ANOVA
IGF-I [4] = test: Immunohistochemistry / retention of IGF-I in chondrocyte constructs; type: cell-based, Bos taurus; conditions: 100 μM of binding sites
type II collagen = test: Immunohistochemistry of constructs for type II collagen; type: cell-based, Bos taurus; conditions: particularly at higher concentrations of KPLHALL
[5] = target: mini-IGFBP-5 binding pocket (Homo sapiens) (UniProt P24593); conditions: cited from earlier work
Sequence of mini-IGFBP-5 binding pocket (Homo sapiens) (P24593 60-112): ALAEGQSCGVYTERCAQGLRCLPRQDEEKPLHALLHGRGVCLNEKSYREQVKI

IGFBP-5 (Homo sapiens) = IGFBP-5 (Homo sapiens) (UniProt P24593); conditions: cited from earlier work
Sequence of IGFBP-5 (Homo sapiens) (P24593 21-272): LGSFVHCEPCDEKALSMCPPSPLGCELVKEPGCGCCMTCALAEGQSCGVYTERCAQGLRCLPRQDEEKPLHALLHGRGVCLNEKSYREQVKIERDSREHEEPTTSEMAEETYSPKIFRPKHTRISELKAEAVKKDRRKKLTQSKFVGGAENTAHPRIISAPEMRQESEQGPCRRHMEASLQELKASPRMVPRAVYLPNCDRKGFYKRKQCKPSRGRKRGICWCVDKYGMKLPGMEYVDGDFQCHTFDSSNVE

Sequence of IGF-I (from UniProt P05019) (P05019 49-118): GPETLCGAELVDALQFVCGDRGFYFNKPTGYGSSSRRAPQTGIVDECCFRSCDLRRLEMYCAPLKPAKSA
Sequence of IGF-I (Homo sapiens, UniProt P05019) (P05019 49-118 limits assumed): as the sequence (P05019 49-118) above

| Substance | KD shift of KPLHALL alginate compared to alginate (IGF-I [1]; KD 50 nM vs 513 nM) | enhancement of binding affinity for IGF-I by KPLHALL modification (IGF-I [1]; vs unmodified alginate) | GAG synthesis enhancement (maximum of steady state, normalized to alginate 0 μM) (chondrocytes [2]) | effect on HYPRO of binding-site concentration (chondrocytes [3]) | IGF-I immunostaining at day 30 (IGF-I [4]) | type II collagen immunostaining at day 30 (type II collagen) | Kd [5] | Kd (IGFBP-5 (Homo sapiens)) |
| --- | --- | --- | --- | --- | --- | --- | --- | --- |
| GGG-KPLALL (KPLHALL) [KPLHALL alginate] | 10 times | more than 10 fold | 1.6 fold | greater in concentrations of 10, 33 and 100 μM binding sites | highest immunolocalization of IGF-I | robust staining for type II collagen |  |  |
| IGF-I (from UniProt P05019) |  |  |  |  |  |  | 37 nM | 3.7 nM |
